Experimental data reported in ChEMBL document CHEMBL4418912, “Methods of identifying antagonists of the hTAS2R46 bitter taste receptor” (2014).
Calls of active or inactive are those of the source. The calls are words filed in the database; no cut-off is given here.

Assays:
Type in all cases: functional, cell-based
[1] = target: T1, Taste receptor type 2 member 4 (Homo sapiens) (UniProt Q9NYW5); assay: Antagonist activity at recombinant human N-terminal rat ST3 receptor-fused TAS2R4 expressed in HEK293T cells co-expressing Galpha16gust44 assessed as inhibition of colchicine-induced increase in intracellular calcium level at 100 uM by FLIPR assay
T1 sequence (whole entry): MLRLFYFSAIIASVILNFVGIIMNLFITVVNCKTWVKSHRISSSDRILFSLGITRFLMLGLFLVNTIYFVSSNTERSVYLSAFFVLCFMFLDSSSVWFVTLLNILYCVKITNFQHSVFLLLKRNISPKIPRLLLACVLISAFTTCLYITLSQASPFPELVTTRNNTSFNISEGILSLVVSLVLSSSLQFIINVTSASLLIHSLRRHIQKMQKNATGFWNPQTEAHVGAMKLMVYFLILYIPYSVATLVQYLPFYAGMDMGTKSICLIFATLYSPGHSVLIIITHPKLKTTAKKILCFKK

[2] = target: T2, Taste receptor type 2 member 38 (Homo sapiens) (UniProt P59533); assay: Antagonist activity at recombinant human N-terminal rat ST3 receptor-fused TAS2R38 expressed in HEK293T cells co-expressing Galpha16gust44 assessed as inhibition of phenylthiocarbamide-induced increase in intracellular calcium level at 100 uM by FLIPR assay
T2 sequence (whole entry): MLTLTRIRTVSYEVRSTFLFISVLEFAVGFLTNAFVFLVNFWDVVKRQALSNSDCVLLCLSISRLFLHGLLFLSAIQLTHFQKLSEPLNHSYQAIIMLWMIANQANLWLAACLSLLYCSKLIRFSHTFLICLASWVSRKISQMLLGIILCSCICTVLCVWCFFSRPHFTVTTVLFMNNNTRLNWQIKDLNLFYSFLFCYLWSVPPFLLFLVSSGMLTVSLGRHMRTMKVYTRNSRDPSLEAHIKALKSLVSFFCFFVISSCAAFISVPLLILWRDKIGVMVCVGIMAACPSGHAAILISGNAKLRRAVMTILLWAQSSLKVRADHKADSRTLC

[3] = target: T3, Taste receptor type 2 member 50 (Homo sapiens) (UniProt P59544); assay: Antagonist activity at recombinant human N-terminal rat ST3 receptor-fused TAS2R50 expressed in HEK293T cells co-expressing Galpha16gust44 assessed as inhibition of andrographolide-induced increase in intracellular calcium level at 100 uM by FLIPR assay
T3 sequence (whole entry): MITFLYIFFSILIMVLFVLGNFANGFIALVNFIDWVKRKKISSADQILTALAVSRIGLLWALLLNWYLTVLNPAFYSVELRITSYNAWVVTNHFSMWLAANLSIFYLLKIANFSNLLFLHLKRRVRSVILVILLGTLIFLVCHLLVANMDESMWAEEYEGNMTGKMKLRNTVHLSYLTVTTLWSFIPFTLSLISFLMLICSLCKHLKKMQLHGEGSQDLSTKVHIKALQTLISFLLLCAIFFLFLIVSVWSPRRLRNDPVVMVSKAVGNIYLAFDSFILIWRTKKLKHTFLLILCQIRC

[4] = target: T4, Taste receptor type 2 member 30 (Homo sapiens) (UniProt P59541); assay: Antagonist activity at recombinant human N-terminal rat ST3 receptor-fused TAS2R47 expressed in HEK293T cells co-expressing Galpha16gust44 assessed as inhibition of brucine-induced intracellular calcium level at 100 uM by FLIPR assay
T4 sequence (whole entry): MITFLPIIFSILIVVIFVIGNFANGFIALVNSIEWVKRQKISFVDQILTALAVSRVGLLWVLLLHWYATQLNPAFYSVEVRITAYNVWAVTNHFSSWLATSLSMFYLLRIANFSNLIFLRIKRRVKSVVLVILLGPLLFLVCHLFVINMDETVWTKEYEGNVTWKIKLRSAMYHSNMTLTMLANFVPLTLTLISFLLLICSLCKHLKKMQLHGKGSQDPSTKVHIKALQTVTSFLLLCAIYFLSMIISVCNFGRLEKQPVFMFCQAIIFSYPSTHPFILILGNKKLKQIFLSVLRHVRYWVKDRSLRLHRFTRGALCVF

[5] = target: T5, Taste receptor type 2 member 20 (Homo sapiens) (UniProt P59543); assay: Antagonist activity at recombinant human N-terminal rat ST3 receptor-fused TAS2R49 expressed in HEK293T cells co-expressing Galpha16gust44 assessed as inhibition of cromolyn-induced increase in intracellular calcium level at 100 uM by FLIPR assay
T5 sequence (whole entry): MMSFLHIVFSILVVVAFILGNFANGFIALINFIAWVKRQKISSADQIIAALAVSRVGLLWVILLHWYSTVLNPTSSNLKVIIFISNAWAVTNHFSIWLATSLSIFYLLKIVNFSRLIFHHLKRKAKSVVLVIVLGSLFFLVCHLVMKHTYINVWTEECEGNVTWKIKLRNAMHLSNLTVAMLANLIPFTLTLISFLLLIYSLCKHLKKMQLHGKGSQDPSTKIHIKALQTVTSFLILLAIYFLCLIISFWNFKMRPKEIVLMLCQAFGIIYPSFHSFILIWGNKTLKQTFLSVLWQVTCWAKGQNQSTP

[6] = target: T6, Taste receptor type 2 member 46 (Homo sapiens) (UniProt P59540); assay: Agonist activity at recombinant human N-terminal rat ST3 receptor-fused TAS2R46 expressed in HEK293T cells co-expressing Galpha16gust44 assessed as increase in intracellular calcium level at 100 uM by FLIPR assay
T6 sequence (whole entry): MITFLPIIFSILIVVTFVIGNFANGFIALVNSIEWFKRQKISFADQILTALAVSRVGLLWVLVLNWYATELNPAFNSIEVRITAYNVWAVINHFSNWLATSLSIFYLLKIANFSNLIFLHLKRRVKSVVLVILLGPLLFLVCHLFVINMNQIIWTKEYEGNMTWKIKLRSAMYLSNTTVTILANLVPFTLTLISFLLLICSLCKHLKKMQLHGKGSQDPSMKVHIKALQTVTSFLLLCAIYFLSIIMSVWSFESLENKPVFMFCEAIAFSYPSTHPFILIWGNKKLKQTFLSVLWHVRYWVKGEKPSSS

[7] = target: T7, Taste receptor type 2 member 10 (Homo sapiens) (UniProt Q9NYW0); assay: Antagonist activity at recombinant human N-terminal rat ST3 receptor-fused TAS2R10 expressed in HEK293T cells co-expressing Galpha16gust44 assessed as inhibition of strychnine-induced increase in intracellular calcium level at 100 uM by FLIPR assay
T7 sequence (whole entry): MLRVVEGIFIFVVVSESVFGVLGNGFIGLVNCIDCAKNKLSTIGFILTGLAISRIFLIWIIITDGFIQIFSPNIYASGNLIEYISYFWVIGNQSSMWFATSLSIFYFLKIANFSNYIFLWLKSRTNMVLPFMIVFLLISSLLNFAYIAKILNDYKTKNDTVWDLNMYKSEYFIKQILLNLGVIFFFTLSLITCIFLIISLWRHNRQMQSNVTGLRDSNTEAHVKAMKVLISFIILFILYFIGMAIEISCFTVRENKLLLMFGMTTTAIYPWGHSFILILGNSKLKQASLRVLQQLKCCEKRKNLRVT

HEK-293T = assay: Effect on intracellular calcium level in mock-transfected HEK293T cells at 100 uM FLIPR assay; details: Homo sapiens

| SMILES | inhibition [1] | inhibition [2] | inhibition [3] | inhibition [4] | inhibition [5] | Activity [6] | inhibition [7] | Activity (HEK-293T) |
| --- | --- | --- | --- | --- | --- | --- | --- | --- |
| C/C1=C\C[C@H](O)/C(C)=C/[C@H]2OC(=O)[C@@H](C)[C@@H]2CC1 | inactive | inactive | inactive | Active | inactive | inactive | inactive | inactive |
| C/C1=C\C[C@H](O)[C@@H](C)C[C@H]2OC(=O)[C@@H](C)[C@@H]2CC1 | inactive | inactive | inactive | Active | inactive | Active | inactive | inactive |
